Data from US20060159648A1, “Novel therapeutic method and compositions for topical administration” (priority 2003, published 2006).
Like-named read-outs stand apart in the source and are kept apart here.

Columns and labels:
[1] = cited from earlier work; for clearance: in adults
[2] = human pharmacokinetics after oral dosing (literature); type: in vivo, humans; details: for Z, target local free (unbound) concentration = peak plasma free drug concentration: peak plasma concentration*(100-PBF)/100
Source text: Z is expressed in units of ng/ml and is the target local free ( i.e. unbound) concentration that is expected to have a therapeutic effect against the skin condition. In the case of PPAR gamma agonists, Z should correspond to the peak plasma free drug concentration generated by dosing these drugs orally to treat effectively Type II diabetes mellitus. The appropriate value of Z may be determined experimentally in vivo by conventional known means using standard protocols.
C is expressed in units of ml/hr and is the rate of clearance of the drug substance. Clearance may be determined experimentally in vivo by conventional known means using standard tests. For example it can be determined from the plasma concentration in response to a defined input of drug using the equation given below: Clearance (ml/hr)=Input rate (ng/hr)/Total plasma concentration (ng/ml)

[3] = cited from earlier work; for Plasma protein binding: Product Information; for plasma bound fraction: value used in the flux equations
fasting plasma glucose = details: type II diabetes patients, cited from earlier work

| Z, target local free (unbound) concentration = peak plasma free drug concentration [2] [ng/mL] | clearance ([2]; human, plasma, oral, in adults, from Clearance/Bioavailability and bioavailability with a meal) [mL/min] | SMILES | Peak plasma concentration ([1]; 30 mg dose) | clearance [1] [mL/h] | Plasma protein binding [3] [%] | plasma bound fraction [3] [%] | Peak plasma concentration ([1]; 400 mg dose) | Bioavailability ([1]; with a meal) [%] | Clearance/Bioavailability ([1]; with a meal) [mL/min] | Peak plasma concentration ([1]; 8 mg dose) | time to achieve a reduction of fasting plasma glucose by 2 mmol 1 (fasting plasma glucose; 2 mg b.i.d. dosage regimen) | time to achieve a reduction of fasting plasma glucose by 2 mmol 1 (fasting plasma glucose; 4 mg b.i.d. dosage regimen) |
| --- | --- | --- | --- | --- | --- | --- | --- | --- | --- | --- | --- | --- |
| 3.5 | – | CCc1ccc(CCOc2ccc(CC3SC(=O)NC3=O)cc2)nc1 (stereo not drawn) [pioglitazone, 5-[4-[2-(5-ethyl-2-pyridyl)ethoxy]benzyl]thiazolidine-2,4-dione] | about 700 ng/ml | 2400 | > 99 | 99.5 | – | – | – | – | – | – |
| 7.5 | 425 | Cc1c(C)c2c(c(C)c1O)CCC(C)(COc1ccc(CC3SC(=O)NC3=O)cc1)O2 (stereo not drawn) [troglitazone, 5-[[4-[(3,4-dihydro-6-hydroxy-2,5,7,8-tetramethyl-2H-1-benzopyran-2-yl)methoxy]phenyl]methyl]-2,4-thiazolidinedione] | – | – | 99 | 99.5 | about 1500 ng/ml | ~85 | 500 | – | – | – |
| 1.7 | – | CN(CCOc1ccc(CC2SC(=O)NC2=O)cc1)c1ccccn1 (stereo not drawn) [rosiglitazone, 5-[4-[2-(N-methyl-N-(2-pyridyl)amino)ethoxy]benzyl]thiazolidine-2,4-dione] | – | 2780 | – | 99.72 | – | – | – | about 600 ng/ml | about 8 weeks | about 4 weeks |
